Measured values as given in PubChem BioAssay AID588390 (Sanford-Burnham Center for Chemical Genomics, 2011).
The source made the active and inactive calls. How the calls were made is not given here.

Target: Ubiquitin-conjugating enzyme E2 N (Homo sapiens) (UniProt P61088)
Experiment: UBC13 polyubiquitination inhibitor analogues, SAR follow-up, biochemical, TR-FRET, set 2 (AID 588390)

Sequence of Ubiquitin-conjugating enzyme E2 N (Homo sapiens) (P61088 whole entry, looked up): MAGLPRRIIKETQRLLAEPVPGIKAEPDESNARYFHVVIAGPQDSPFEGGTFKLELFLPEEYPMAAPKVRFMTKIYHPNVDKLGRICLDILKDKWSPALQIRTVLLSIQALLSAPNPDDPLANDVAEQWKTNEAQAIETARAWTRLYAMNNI

Row | Structure (SMILES) | IC50
1 | COc1ccc(OC)c(NC(=O)CN2CCC(n3cnc4cc(F)ccc43)CC2)c1 | inactive
2 | O=C(C1CCN(c2ncnc3c2nc2n3CCCCC2)CC1)N1CCN(Cc2ccccc2)CC1 | 2.75 µM
3 | CC1(C)Cc2c(sc(NC(=O)C(=O)NCC3CCCO3)c2C(=O)O)CO1 (configuration not stated) | inactive
4 | O=C(NCCCN1CCN(c2ccccc2)CC1)C1CCCN(c2ncnc3c2nc2n3CCCCC2)C1 (configuration not stated) | 3.3 µM
5 | COC(=O)c1c(NC(=O)C(=O)NCC2CCCO2)sc2c1CC(C)(C)OC2 (configuration not stated) | 4.25 µM
6 | O=C(CN1CCC(n2cnc3cc(F)ccc32)CC1)Nc1cccc(C(F)(F)F)c1 | > 100 µM (inactive)
7 | CC1(C)Cc2c(sc(NC(=O)C(=O)N3CCCC3)c2C(N)=O)CO1 | 0.58 µM
8 | Cc1ccc(C)c(N2CCN(CCCNC(=O)C3CCCN(c4ncnc5c4nc4n5CCCCC4)C3)CC2)c1 (configuration not stated) | 9.81 µM
9 | O=C(c1ccco1)N1CCN(C(=O)C2CCN(c3ncnc4c3nc3n4CCCCC3)CC2)CC1 | > 100 µM (inactive)
10 | O=C(C1CCN(c2ncnc3c2nc2n3CCCCC2)CC1)N1CCN(c2ccccn2)CC1 | inactive
11 | Cc1cccc(NC(=O)CN2CCC(n3cnc4cc(F)ccc43)CC2)c1C | > 100 µM (inactive)
12 | CCOc1ccc(NC(=O)CN2CCC(n3cnc4cc(F)ccc43)CC2)cc1 | > 100 µM (inactive)
13 | CC1(C)Cc2c(sc(NC(=O)C(=O)NCC3CCCO3)c2C(N)=O)CO1 (configuration not stated) | 0.63 µM
14 | O=C(C1CCN(c2ncnc3c2nc2n3CCCCC2)CC1)N1CCN(c2ncccn2)CC1 | > 100 µM (inactive)
15 | O=C(CN1CCC(n2c(C(F)(F)F)nc3cc(F)ccc32)CC1)Nc1ccc2c(c1)OCO2 | > 100 µM (inactive)
16 | O=C(CN1CCC(n2cnc3cc(C(F)(F)F)ccc32)CC1)Nc1ccc2c(c1)OCCO2 | > 100 µM (inactive)
17 | O=C(CN1CCC(n2cnc3cc(F)ccc32)CC1)Nc1ccccc1Br | inactive
18 | Cc1nc2cc(F)ccc2n1C1CCN(CC(=O)Nc2ccccc2)CC1 | > 100 µM (inactive)
19 | COc1ccc(NC(=O)CN2CCC(n3c(C)nc4cc(F)ccc43)CC2)c(OC)c1 | > 100 µM (inactive)
20 | Cc1cccc(N2CCN(CCCNC(=O)C3CCCN(c4ncnc5c4nc4n5CCCCC4)C3)CC2C)c1 (configuration not stated) | inactive
21 | O=C(C1CCN(c2ncnc3c2nc2n3CCCCC2)CC1)N1CCN(c2ccc(F)cc2)CC1 | inactive
22 | COc1ccccc1N1CCN(CCCNC(=O)C2CCCN(c3ncnc4c3nc3n4CCCCC3)C2)CC1 (configuration not stated) | inactive
23 | Cc1nc2ccccc2n1C1CCN(CC(=O)Nc2ccccc2Oc2ccccc2)CC1 | > 100 µM (inactive)
24 | O=C(NCCCN1CCN(c2ccc(F)cc2)CC1)C1CCCN(c2ncnc3c2nc2n3CCCCC2)C1 (configuration not stated) | 2.91 µM
25 | CCOc1ccccc1NC(=O)CN1CCC(n2cnc3cc(F)ccc32)CC1 | 4 µM
26 | COc1ccc(OC)c(NC(=O)CN2CCC(n3c(C)nc4cc(F)ccc43)CC2)c1 | inactive
27 | CC1(C)Cc2c(sc(NC(=O)C(=O)NCCN3CCOCC3)c2C(N)=O)CO1 | 1.34 µM
